Data from patent US4363805A, “Aminodesoxy-1.4;3.6-dianhydrohexitol nitrates and pharmaceutical composition” (Firma Willmar Schwabe, priority 1980, dated 1982).

Key:
[1] = test system: isolated guinea pig hearts; assay: Experiments on Langendorff hearts (coronary flowthrough, inotropism, frequency); settings: Cavia porcellus, read-out: flowthrough, percentage change with regard to the initial value
Method: After reaching the stationary state in the 30th minute, the hearts were each perfused with 50 ml. tyrode solution with a content of test substance of, in each case, 25 μg./ml. Each test substance was tested on 3-6 hearts.
In each case, there was measured the inotropism, the flowthrough and the frequency, whereby the values given in Table I are average values of the percentage changes in comparison with the initial values.

narcotised guinea pigs = assay: Blood pressure experiments on guinea pigs, i.v.; format: in vivo, guinea pig; settings: for blood pressure before: before administration
mongrel cats = assay: Inotropic and heart-circulatory effectiveness on narcotised cats, intravenous; format: in vivo, cat; settings: 6 animals
[2] = 0.25 mg/kg i.v., before administration

CN(CCc1ccccc1)[C@H]1CO[C@H]2[C@@H]1OC[C@@H]2O[N+](=O)[O-] [Example 20, 5-[N-(2-Phenylethyl)-N-methylamino]-5-desoxy-1.4;3.6-dianhydro-L-iditol 2-nitrate]
activation at 25 µg/mL [1]: 66.9%

CC(C)(C)C(=O)N[C@H]1CO[C@H]2[C@@H]1OC[C@@H]2O[N+](=O)[O-] [Example 5, 5-Pivaloylamino-5-desoxy-1.4;3.6-dianhydro-L-iditol 2-nitrate]
activation at 25 µg/mL [1]: 21.2% | blood pressure after (narcotised guinea pigs; 0.25 mg/kg i.v.): 54.00 ± 2.52 mm.Hg | blood pressure Δ (narcotised guinea pigs; 0.25 mg/kg i.v.): -10.50 mm.Hg | blood pressure before (narcotised guinea pigs; 0.25 mg/kg i.v.): 64.50 ± 2.75 mm.Hg | blood pressure after (narcotised guinea pigs; 1.00 mg/kg i.v.): 40.50 ± 3.66 mm.Hg | blood pressure Δ (narcotised guinea pigs; 1.00 mg/kg i.v.): -22.75 mm.Hg | blood pressure after (narcotised guinea pigs; 2.50 mg/kg i.v.): 30.75 ± 8.60 mm.Hg | blood pressure Δ (narcotised guinea pigs; 2.50 mg/kg i.v.): -31.75 mm.Hg | blood pressure-lowering effectiveness (in words) (narcotised guinea pigs; i.v.): stronger action than ISDN

O=[N+]([O-])O[C@H]1CO[C@H]2[C@@H]1OC[C@@H]2NC12CC3CC(CC(C3)C1)C2 [11 b]
activation at 25 µg/mL [1]: 145%

CN(CCCOc1ccccc1)[C@H]1CO[C@H]2[C@@H]1OC[C@@H]2O[N+](=O)[O-] [Example 34, 5-[N-Methyl-N-(3-phenoxypropyl)-amino]-5-desoxy-1.4;3.6-dianhydro-L-iditol 2-nitrate]
activation at 25 µg/mL [1]: 50% | blood pressure before (mongrel cats; [2]): 95.2 mm.Hg | dp/dt (inotropism) before (mongrel cats; [2]): 5333 mm.Hg/sec | heart frequency before (mongrel cats; [2]): 180.3 min⁻¹ | blood pressure WD (mongrel cats; 0.25 mg/kg i.v.): 4.1 min | blood pressure after (mongrel cats; 0.25 mg/kg i.v.): 73.7 mm.Hg | blood pressure Δ (mongrel cats; 0.25 mg/kg i.v.): -21.5 mm.Hg | dp/dt (inotropism) after (mongrel cats; 0.25 mg/kg i.v.): 4650 mm.Hg/sec | dp/dt (inotropism) Δ (mongrel cats; 0.25 mg/kg i.v.): -683 mm.Hg/sec | dp/dt WD (mongrel cats; 0.25 mg/kg i.v.): 2.8 min | heart frequency after (mongrel cats; 0.25 mg/kg i.v.): 179.3 min⁻¹ | heart frequency Δ (mongrel cats; 0.25 mg/kg i.v.): -1.0 min⁻¹ | blood pressure WD (mongrel cats; 0.50 mg/kg i.v.): 4.2 min | blood pressure after (mongrel cats; 0.50 mg/kg i.v.): 74.8 mm.Hg | blood pressure Δ (mongrel cats; 0.50 mg/kg i.v.): -24.2 mm.Hg | dp/dt (inotropism) after (mongrel cats; 0.50 mg/kg i.v.): 4683 mm.Hg/sec | dp/dt (inotropism) Δ (mongrel cats; 0.50 mg/kg i.v.): -817 mm.Hg/sec | dp/dt WD (mongrel cats; 0.50 mg/kg i.v.): 3,7 min | heart frequency after (mongrel cats; 0.50 mg/kg i.v.): 178.0 min⁻¹ | heart frequency Δ (mongrel cats; 0.50 mg/kg i.v.): -1.0 min⁻¹ | blood pressure WD (mongrel cats; 1.00 mg/kg i.v.): 6.5 min | blood pressure after (mongrel cats; 1.00 mg/kg i.v.): 74.5 mm.Hg | blood pressure Δ (mongrel cats; 1.00 mg/kg i.v.): -30.8 mm.Hg | dp/dt (inotropism) after (mongrel cats; 1.00 mg/kg i.v.): 4400 mm.Hg/sec | dp/dt (inotropism) Δ (mongrel cats; 1.00 mg/kg i.v.): -1033 mm.Hg/sec | dp/dt WD (mongrel cats; 1.00 mg/kg i.v.): 4.2 min | heart frequency after (mongrel cats; 1.00 mg/kg i.v.): 172.0 min⁻¹ | heart frequency Δ (mongrel cats; 1.00 mg/kg i.v.): -3.0 min⁻¹ | blood pressure WD (mongrel cats; 2.50 mg/kg i.v.): > 9.0 min | blood pressure after (mongrel cats; 2.50 mg/kg i.v.): 69.2 mm.Hg | blood pressure Δ (mongrel cats; 2.50 mg/kg i.v.): -39.7 mm.Hg | dp/dt (inotropism) after (mongrel cats; 2.50 mg/kg i.v.): 3850 mm.Hg/sec | dp/dt (inotropism) Δ (mongrel cats; 2.50 mg/kg i.v.): -1450 mm.Hg/sec | dp/dt WD (mongrel cats; 2.50 mg/kg i.v.): > 6.5 min | heart frequency after (mongrel cats; 2.50 mg/kg i.v.): 158.0 min⁻¹ | heart frequency Δ (mongrel cats; 2.50 mg/kg i.v.): -15.0 min⁻¹

O=[N+]([O-])O[C@@H]1CO[C@H]2[C@@H]1OC[C@@H]2O [ISMN, 1.4;3.6-dianhydro-D-glucitol 2-nitrate, reference compound]
activation at 25 µg/mL [1]: 9.11% | blood pressure Δ (narcotised guinea pigs; 0.25 mg/kg i.v.): -3.70 mm.Hg | blood pressure Δ (narcotised guinea pigs; 1.00 mg/kg i.v.): -6.30 mm.Hg | blood pressure Δ (narcotised guinea pigs; 2.50 mg/kg i.v.): -10.90 mm.Hg

CCN[C@H]1CO[C@H]2[C@@H]1OC[C@@H]2O[N+](=O)[O-] [10 b]
activation at 25 µg/mL [1]: 25.9% | blood pressure after (narcotised guinea pigs; 0.25 mg/kg i.v.): 37.25 ± 2.06 mm.Hg | blood pressure Δ (narcotised guinea pigs; 0.25 mg/kg i.v.): -6.00 mm.Hg | blood pressure before (narcotised guinea pigs; 0.25 mg/kg i.v.): 43.25 ± 2.21 mm.Hg | blood pressure after (narcotised guinea pigs; 1.00 mg/kg i.v.): 32.00 ± 2.04 mm.Hg | blood pressure Δ (narcotised guinea pigs; 1.00 mg/kg i.v.): -11.25 mm.Hg | blood pressure after (narcotised guinea pigs; 2.50 mg/kg i.v.): 27.25 ± 1.60 mm.Hg | blood pressure Δ (narcotised guinea pigs; 2.50 mg/kg i.v.): -15.50 mm.Hg
